# Columns and labels:
# [1] = biological target: PAS of Electrophorus electricus AChE (EeAChE) (Electrophorus electricus, UniProt O42275); test: Propidium displacement studies (PAS of AChE); assay type: binding; parameters: purchased Sigma-Aldrich type VI-S; conditions: mean ± SD of two independent experiments, read-out: KD (displacement of propidium from PAS)
# Experimental: Propidium Displacement Studies.
# electricus AChE (EeAChE) (type VI-S, Sigma-Aldrich) was determined using the PAS-
# specific ligand propidium iodide (P) (Sigma-Aldrich), following a described procedure.9
# Complexation of propidium iodide and AChE leads to a shift in the excitation wavelength.9
# Fluorescence intensity was monitored with a Jasco 6200 spectrofluorometer (Jasco Europe,
# Italy) using a 0.5 mL quartz cuvette at rt. EeAChE (2 μM) was first incubated with 8 mM
# propidium iodide in 1 mM Tris-HCl, pH 8.0 at rt.
# prepared in MeOH. In the back titration experiments of the propidium‒AChE complex by
# fluorescence emission was determined. KD values were obtained after processing the raw data
# values are expressed as mean ± standard deviation (SD) of two independent experiments.
# recombinant mouse AChE = biological target: T1, recombinant mouse AChE (Mus musculus, UniProt P21836); test: Mouse acetylcholinesterase inhibition, Ellman's method; assay type: biochemical
# T1 construct: purchased Bio-Techne, Milan, Italy
# T1 sequence (P21836 32-614): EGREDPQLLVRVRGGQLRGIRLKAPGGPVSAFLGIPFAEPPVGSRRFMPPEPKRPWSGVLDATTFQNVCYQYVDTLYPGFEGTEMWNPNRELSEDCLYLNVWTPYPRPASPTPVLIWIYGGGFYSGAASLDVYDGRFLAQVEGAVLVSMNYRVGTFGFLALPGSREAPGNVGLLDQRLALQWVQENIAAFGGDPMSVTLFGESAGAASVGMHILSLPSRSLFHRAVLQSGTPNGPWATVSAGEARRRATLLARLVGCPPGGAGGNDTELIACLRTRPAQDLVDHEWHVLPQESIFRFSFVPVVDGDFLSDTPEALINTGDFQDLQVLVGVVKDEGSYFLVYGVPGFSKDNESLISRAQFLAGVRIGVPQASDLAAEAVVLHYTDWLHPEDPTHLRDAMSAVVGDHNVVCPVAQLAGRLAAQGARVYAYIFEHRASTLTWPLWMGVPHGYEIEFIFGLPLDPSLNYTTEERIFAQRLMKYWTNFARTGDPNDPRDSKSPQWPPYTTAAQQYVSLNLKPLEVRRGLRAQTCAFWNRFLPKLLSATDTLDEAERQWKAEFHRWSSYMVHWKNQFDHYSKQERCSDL
# Experimental: Human and mouse acetylcholinesterase and human butyrylcholinesterase inhibition
# assay. The inhibitory activity of the target compounds toward recombinant human AChE
# (Sigma-Aldrich, Milan, Italy), recombinant mouse AChE (Bio-Techne, Milan, Italy) and
# human serum BChE (Sigma-Aldrich, Milan, Italy) was assessed by Ellman’s method,8 using
# Stock solutions of the AChEs were prepared by
# dissolving enzyme lyophilized powder (hAChE) or diluting the enzyme commercial solution
# (mAChE) in 0.1 M potassium phosphate (pH 8.0) containing 0.1% Triton X-100, whereas the
# stock solution of hBChE was prepared in 0.1% aq. gelatin and the stock solutions of the
# compounds to be tested were made in MeOH (2-4 mM). The assay solution consisted of 0.02
# unit mL‒1 of the enzyme, 340 M 5,5’-dithiobis(2-nitrobenzoic acid), and 550 M of the
# substrate acetylthiocholine iodide (for AChE assay) or butyrylthiocholine iodide (for BChE
# assay) in 0.1 M potassium phosphate (pH 8.0). Blank solutions containing all components
# except the enzymes were prepared to account for the non-enzymatic hydrolysis of the
# Prior the addition of the substrate, the assay solutions were incubated at 37 °C for 20 min.
# After the addition of the substrate, cuvettes were rapidly transferred into a Jasco V-530
# double beam spectrophotometer equipped with thermostated cuvette holders (37 °C), in order
# for 240 s. For each tested compound, five increasing concentrations were assayed in order to
# achieve inhibition percentages of 20‒80%. Each concentration was assayed in triplicate. IC50
# values were calculated from the inhibition plot (% inhibition vs log[inhibitor]) and are
# expressed as mean ± SEM. Each IC50 value is the average of at least two experiments, each
# [2] = Microsomal stability, human liver microsomes; assay type: in vitro ADME
# Experimental: Microsomal stability screen. The microsomal stability of the target compounds was
# determined at the Innopharma Drug Screening and Pharmacogenomics Platform (Santiago de
# Compostela, Spain). The human, rat and mice pooled microsomes, with a protein content of 20 mg mL‒1, were purchased from Tebu-Xenotech. The compounds were incubated in a 96-well microplate at 37 °C with the microsomes in 50 mM phosphate buffer (pH = 7.4) containing as cofactors 30 mM MgCl2, 10 mM NADP, 100 mM glucose-6-phosphate and 40
# Samples (75 µL) were taken from each well at 0, 10, 20, 40 and 60 min and transferred to a microplate. 4 °C Acetonitrile (75 µL) and internal standard (rolipram) were then added for inactivating the microsomes, and water with 0.5% formic acid (30 µL) was subsequently added for improving the chromatographic conditions, keeping the mixtures at 4 °C. The plate was centrifuged at 46,000 g for 30 min at 15 °C and supernatants were taken and analyzed in a UPLC-MS/MS system (UPLC QSM Waters Acquity) using reverse phase Acquity UPLC® HSST3 1.7 μm (2.1 mm × 50 mm, Waters) as the stationary phase, 0.1% formic acid in water (A) / 0.1% formic acid in acetonitrile (B) as the mobile phase, a flow of 0.8 mL min‒1, and the
# The metabolic stability of the compounds was calculated from the logarithm of the remaining compound at each of the time points studied.
# recombinant human sEH = biological target: T2, recombinant human sEH (Homo sapiens, UniProt P34913); test: Human soluble epoxide hydrolase inhibition, fluorescence-based assay (CMNPC substrate); assay type: biochemical; conditions: recombinant human sEH; average of three replicates; read-out: hsEH IC50
# T2 sequence (P34913 1-555): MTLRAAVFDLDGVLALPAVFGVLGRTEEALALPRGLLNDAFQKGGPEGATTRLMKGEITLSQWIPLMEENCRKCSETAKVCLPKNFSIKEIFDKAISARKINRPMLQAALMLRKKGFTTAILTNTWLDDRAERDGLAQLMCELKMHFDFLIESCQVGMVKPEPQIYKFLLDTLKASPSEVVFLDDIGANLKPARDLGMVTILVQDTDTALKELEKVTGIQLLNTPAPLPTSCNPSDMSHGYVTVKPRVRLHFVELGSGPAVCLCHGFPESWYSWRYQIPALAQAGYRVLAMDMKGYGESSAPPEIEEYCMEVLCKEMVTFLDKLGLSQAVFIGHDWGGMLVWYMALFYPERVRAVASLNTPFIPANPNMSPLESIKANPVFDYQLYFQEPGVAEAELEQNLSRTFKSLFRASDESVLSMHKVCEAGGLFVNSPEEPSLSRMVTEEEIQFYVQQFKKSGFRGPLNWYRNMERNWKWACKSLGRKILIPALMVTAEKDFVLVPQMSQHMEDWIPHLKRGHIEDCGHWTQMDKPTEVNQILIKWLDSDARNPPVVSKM
# Experimental: Human and mouse soluble epoxide hydrolase inhibition assay. The inhibitory activity of
# the target compounds toward human and mouse sEH was determined by a fluorescence-based
# assay, using purified recombinant human or mouse sEH proteins and CMNPC as a fluorescent
# substrate.6 The enzymes were incubated at 30 °C with the inhibitors ([I]final = 0.4-100,000
# nM) for 5 min in 100 mM sodium phosphate buffer (200 µL, pH 7.4) containing 0.1 mg mL‒1
# of BSA and 1% of DMSO. The substrate (CMNPC) was then added ([S]final = 5 µM). Activity
# was assessed by measuring the appearance of the fluorescent 6-methoxynaphthaldehyde
# (Molecular Devices). Results were obtained by regression analysis from a linear region of the
# curve and are given as IC50 values, i.e., the concentration of the compound that reduces the
# sEH activity by 50%. All measurements were performed in triplicate and the mean is
# PAS of Electrophorus electricus AChE (EeAChE), sequence (O42275 24-633): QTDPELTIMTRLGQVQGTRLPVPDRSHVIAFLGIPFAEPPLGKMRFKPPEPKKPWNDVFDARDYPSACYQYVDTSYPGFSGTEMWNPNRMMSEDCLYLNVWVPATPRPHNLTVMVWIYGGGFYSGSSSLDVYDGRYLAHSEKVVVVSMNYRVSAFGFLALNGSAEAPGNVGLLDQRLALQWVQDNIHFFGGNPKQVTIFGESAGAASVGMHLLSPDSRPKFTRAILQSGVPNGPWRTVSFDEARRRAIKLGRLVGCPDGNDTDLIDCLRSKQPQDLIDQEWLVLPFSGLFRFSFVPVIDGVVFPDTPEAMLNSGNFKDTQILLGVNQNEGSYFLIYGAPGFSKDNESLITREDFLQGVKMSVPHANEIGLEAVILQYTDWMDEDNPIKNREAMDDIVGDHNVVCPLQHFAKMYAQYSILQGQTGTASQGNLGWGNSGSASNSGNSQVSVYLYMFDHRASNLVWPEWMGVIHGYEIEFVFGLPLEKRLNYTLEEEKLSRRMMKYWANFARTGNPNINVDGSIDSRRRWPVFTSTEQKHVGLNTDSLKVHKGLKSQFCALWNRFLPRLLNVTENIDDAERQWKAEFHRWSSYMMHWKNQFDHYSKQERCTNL
smiles,measurement,setting,value
"O=C(Nc1ccc(OC(F)(F)F)cc1)NC1CCN(C(=O)CCCCNc2c3c(nc4cc(Cl)ccc24)CCCC3)CC1 [12c, 1-{1-{5-[(6-Chloro-1,2,3,4-tetrahydroacridin-9-yl)amino]pentanoyl}piperidin-4-yl}-3-[4-(trifluoromethoxy)phenyl]urea]",Kd,[1],3950 ± 350 nM
same,mAChE potency relative to 6-chlorotacrine,recombinant mouse AChE,5 fold
same,potency toward mAChE relative to hAChE,recombinant mouse AChE,3 fold
same,IC50,"recombinant mouse AChE; recombinant mouse AChE, mean ± SEM, read-out: mAChE IC50",4.12 ± 0.23 nM
same,"% compound remaining non-metabolized, human microsomes",[2]; after 10 min at 37 °C,82%
same,"% compound remaining non-metabolized, human microsomes",[2]; after 20 min at 37 °C,74%
same,microsomal CLint at 1 h,"[2]; human, liver microsomes (pooled), pH 7.4, 37 °C",8 µL/min/mg
same,half-life at 1 h,"[2]; human, liver microsomes (pooled), pH 7.4, 37 °C, read-out: t1/2, human microsomes",1.52 h
same,remaining at 1 h,"[2]; human, liver microsomes (pooled), pH 7.4, after 1 h of incubation at 37 °C, read-out: % remaining compound, human microsomes",55%
same,IC50,recombinant human sEH,4.6 nM

# — publication PMC8958510 (Journal of Medicinal Chemistry, 2022)
